According to patent publication US7230033B2, “Pest control compositions and methods for their use” (United States of America as represented by the Secretary of …, priority 2000, dated 2007):

Experiments:
Aedes aegypti adults = test: Residual activity, aged treated bottles, mosquitoes; format: in vivo
[1] = system: nymphal Ixodes scapularis; test: Treated-vial biocidal screening with 2% acetone solutions (Example 2), tick nymphs; format: in vivo; details: treated vials sat 72 h; arthropods added for the final 24 h
Description: Samples of the compounds listed below were obtained as described in Example 1, and screened for biocidal activities against nymphal Ixodes scapularis. In this example, 2% acetone solutions (wt/vol) of the compounds were applied to inner surfaces of 2-dram friction cap vials. Vials and caps were treated then allowed to dry for a minimum of 4 hours before placing 10 nymphs in each container. These same vials were used to challenge additional nymphs and adult I. scapularis ticks and adult Xenopsylla cheopis fleas through five weeks to observe any possible residual activity.
Numbers in parentheses refer to length of treatment in terms of hours (h) or weeks (wk). Data is presented in terms of number killed/number tested. For test periods longer than 24 hours, the treated vials were allowed to sit for the stated period after drying (72 h, 4 wk, or 5 wk) and each group of arthropods was added to the vials for the final 24 h of the test period.

[2] = system: fourth-instar Aedes aegypti larvae; test: Larval mosquito bioassay; format: in vivo; details: Aedes aegypti larval mosquitoes; concentration of the 1 ml added to 150 ml water
Description: Individual groups of 10 fourth-instar Aedes aegypti larvae were contained in 150 ml of water and exposed to […] of essential oils prepared by 2-fold serial dilutions ranging from 0.06%–5.0% in 1 ml of acetone. A control group of larvae were exposed to 1 ml of acetone only.
It is important to note that larval mosquitoes are tested in their natural environment, i.e., in water. The particular assays used herein involved groups of 10 larval mosquitoes in 150 ml of water. The weight percentages reported for lethal concentration for larval mosquitoes are the weight percentages added to the 150 ml water (as opposed to the final percentage of the tested compound(s) in the 150 ml water). As one of skill in the art will appreciate, test compound(s) added to a volume of water (such as, 150 ml) can be dramatically diluted depending upon the water solubility of the tested compound. […] If the tested compound is an oil (such as, carvacrol, nootkatone, or 13-hydroxy-valencene), it most likely floats on the surface of the water.

I. scapularis nymphs = test: Tick bioassay, treated 2-dram vials, probit analysis; format: in vivo, Ixodes scapularis
Description: A control treated with acetone only was run with each series.
For each time point, if ticks and fleas were incapable of movement, maintaining normal posture, leg coordination, ability to right themselves, or any signs of life, they were considered moribund or dead.

[3] = Ixodes scapularis nymphal ticks, alone, or 1:1 with carvacrol (in parenthesis)

In the case of `C=C(C)[C@@H]1CCC2=CC(=O)C[C@@H](C)[C@]2(C)C1` [Compound 7, Nootkatone], the “LC90, residual activity” value (Aedes aegypti adults; 1 week after treatment) is reported as 0.054 percent concentration, wt:vol, the “Slope, residual activity” value (Aedes aegypti adults; 1 week after treatment) is reported as 3.043 and the “Slope, residual activity” value (Aedes aegypti adults; 2 weeks after treatment) is reported as 3.342. The “LC90, residual activity” value (Aedes aegypti adults; 2 weeks after treatment, NE = not effective) was 0.046 percent concentration, wt:vol, the “Slope, residual activity” value (Aedes aegypti adults; 4 weeks after treatment) was 2.698 and the “LC90, residual activity” value (Aedes aegypti adults; 4 weeks after treatment, NE = not effective) was 0.038 percent concentration, wt:vol. The “I. scapularis nymphs (72 h), number killed/number tested” value [1] was 5/5, the “LC50 (1 h)” value [2] was 5.327 % (wt:vol) and the “LC50 (24 h)” value [2] was 1.605 % (wt:vol). The “LC90 (1 hr)” value [2] was 14.045 % (wt:vol), the “LC90 (24 h)” value [2] was 2.59 % (wt:vol) and the LC90 (I. scapularis nymphs; 24 h exposure, NE = not effective at concentrations tested) was 0.0055 percent concentration, wt:vol. For the same compound, the Slope (I. scapularis nymphs; 24 h exposure, probit) was 4.708, the “LC50 (1 h)” value (I. scapularis nymphs; [3]) was 0.126 % (wt:vol) and the “LC50 (24 h)” value (I. scapularis nymphs; [3]) was 0.0029 % (wt:vol). For the same compound, the “LC90 (1 hr)” value (I. scapularis nymphs; [3]) was 0.725 % (wt:vol), the “LC90 (24 h)” value (I. scapularis nymphs; [3]) was 0.0055 % (wt:vol) and the “LC50 (24 h)” value (I. scapularis nymphs; Ixodes scapularis nymphal ticks, alone, or 1:1 with carvacrol (in parenthesis), listed as compound 7) was 0.0029 % (wt:vol).
